{"source": "ChEMBL document CHEMBL4507319", "about": "(2021)", "key": {"[1]": {"molecular_target": "T1, Tyrosine-protein kinase ITK/TSK (Homo sapiens) (UniProt Q08881)", "T1 sequence (whole entry)": "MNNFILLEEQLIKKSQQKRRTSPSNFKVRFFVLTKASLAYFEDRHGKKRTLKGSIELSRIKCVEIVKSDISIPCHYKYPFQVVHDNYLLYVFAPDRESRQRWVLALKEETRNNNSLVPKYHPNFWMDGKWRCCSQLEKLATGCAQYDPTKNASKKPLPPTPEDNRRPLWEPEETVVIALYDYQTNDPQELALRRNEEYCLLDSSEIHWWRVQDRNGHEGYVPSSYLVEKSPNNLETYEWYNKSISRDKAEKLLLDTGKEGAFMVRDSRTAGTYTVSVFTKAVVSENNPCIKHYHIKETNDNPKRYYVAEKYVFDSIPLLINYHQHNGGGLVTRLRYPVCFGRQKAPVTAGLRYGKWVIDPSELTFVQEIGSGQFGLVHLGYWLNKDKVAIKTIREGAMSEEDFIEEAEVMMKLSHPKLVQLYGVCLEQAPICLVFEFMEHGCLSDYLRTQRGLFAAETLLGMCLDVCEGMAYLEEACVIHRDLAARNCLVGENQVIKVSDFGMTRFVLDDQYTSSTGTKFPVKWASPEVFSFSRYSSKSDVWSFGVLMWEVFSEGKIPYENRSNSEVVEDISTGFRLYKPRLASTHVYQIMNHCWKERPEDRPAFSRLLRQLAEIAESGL", "assay": "Itk(h) Eurofins kinase panel", "settings": "Compound concentration 1.0 uM"}, "[2]": {"molecular_target": "Interferon-induced, double-stranded RNA-activated protein kinase (Homo sapiens) (UniProt P19525)", "sequence (P19525 whole entry)": "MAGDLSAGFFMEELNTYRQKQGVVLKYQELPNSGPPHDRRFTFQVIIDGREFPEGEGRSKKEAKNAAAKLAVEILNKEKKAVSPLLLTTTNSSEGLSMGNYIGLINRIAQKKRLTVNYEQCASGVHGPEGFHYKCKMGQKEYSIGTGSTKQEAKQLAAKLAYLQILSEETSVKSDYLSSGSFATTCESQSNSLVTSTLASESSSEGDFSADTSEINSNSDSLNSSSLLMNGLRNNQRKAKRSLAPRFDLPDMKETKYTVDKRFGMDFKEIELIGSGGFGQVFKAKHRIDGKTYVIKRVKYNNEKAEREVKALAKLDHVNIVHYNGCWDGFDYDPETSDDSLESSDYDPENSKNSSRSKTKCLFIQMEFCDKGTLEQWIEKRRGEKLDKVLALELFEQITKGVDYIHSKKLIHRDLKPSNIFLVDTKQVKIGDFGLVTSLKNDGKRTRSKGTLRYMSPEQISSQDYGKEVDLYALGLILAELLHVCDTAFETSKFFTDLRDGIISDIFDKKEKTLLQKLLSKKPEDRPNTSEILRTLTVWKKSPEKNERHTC", "assay": "PKR(h) Eurofins kinase panel", "settings": "Compound concentration 1.0 uM"}, "[3]": {"molecular_target": "Vascular endothelial growth factor receptor 3 (Homo sapiens) (UniProt P35916)", "sequence (P35916 whole entry)": "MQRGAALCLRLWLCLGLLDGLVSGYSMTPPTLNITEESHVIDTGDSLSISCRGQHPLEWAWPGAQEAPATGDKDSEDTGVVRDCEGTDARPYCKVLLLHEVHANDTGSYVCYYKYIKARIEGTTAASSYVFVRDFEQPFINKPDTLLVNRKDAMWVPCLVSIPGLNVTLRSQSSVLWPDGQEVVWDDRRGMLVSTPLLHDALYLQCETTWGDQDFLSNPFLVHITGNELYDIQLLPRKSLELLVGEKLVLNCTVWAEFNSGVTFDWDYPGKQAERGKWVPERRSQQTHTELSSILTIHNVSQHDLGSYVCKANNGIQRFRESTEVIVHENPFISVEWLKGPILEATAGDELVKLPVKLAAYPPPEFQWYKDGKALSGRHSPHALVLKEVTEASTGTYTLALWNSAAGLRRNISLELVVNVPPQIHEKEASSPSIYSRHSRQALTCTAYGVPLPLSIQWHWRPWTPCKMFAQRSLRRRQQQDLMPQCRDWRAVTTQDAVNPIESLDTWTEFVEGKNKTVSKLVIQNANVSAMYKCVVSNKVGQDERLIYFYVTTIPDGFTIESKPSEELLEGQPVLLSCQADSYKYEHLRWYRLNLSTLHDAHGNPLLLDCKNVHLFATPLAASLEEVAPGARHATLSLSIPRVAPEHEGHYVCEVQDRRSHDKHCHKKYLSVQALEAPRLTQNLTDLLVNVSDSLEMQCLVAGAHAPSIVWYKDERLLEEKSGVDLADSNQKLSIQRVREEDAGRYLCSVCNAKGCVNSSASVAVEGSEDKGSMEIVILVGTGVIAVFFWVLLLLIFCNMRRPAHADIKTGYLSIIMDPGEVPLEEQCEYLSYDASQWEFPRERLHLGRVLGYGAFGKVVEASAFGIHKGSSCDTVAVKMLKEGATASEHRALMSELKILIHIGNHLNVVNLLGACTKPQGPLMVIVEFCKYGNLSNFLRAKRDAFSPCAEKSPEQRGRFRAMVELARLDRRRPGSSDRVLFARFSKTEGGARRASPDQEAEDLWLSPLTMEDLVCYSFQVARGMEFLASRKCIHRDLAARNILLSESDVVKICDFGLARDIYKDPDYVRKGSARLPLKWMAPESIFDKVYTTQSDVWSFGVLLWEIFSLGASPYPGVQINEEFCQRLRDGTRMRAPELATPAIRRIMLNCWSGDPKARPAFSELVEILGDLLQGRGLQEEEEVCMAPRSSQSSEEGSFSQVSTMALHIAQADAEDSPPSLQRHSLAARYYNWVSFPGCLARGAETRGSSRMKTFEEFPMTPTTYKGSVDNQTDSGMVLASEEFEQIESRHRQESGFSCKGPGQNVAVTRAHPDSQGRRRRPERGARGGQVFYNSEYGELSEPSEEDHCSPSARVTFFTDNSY", "assay": "Flt4(h) Eurofins kinase panel", "settings": "Compound concentration 1.0 uM"}, "[4]": {"molecular_target": "G protein-coupled receptor kinase 6 (Homo sapiens) (UniProt P43250)", "sequence (P43250 whole entry, looked up)": "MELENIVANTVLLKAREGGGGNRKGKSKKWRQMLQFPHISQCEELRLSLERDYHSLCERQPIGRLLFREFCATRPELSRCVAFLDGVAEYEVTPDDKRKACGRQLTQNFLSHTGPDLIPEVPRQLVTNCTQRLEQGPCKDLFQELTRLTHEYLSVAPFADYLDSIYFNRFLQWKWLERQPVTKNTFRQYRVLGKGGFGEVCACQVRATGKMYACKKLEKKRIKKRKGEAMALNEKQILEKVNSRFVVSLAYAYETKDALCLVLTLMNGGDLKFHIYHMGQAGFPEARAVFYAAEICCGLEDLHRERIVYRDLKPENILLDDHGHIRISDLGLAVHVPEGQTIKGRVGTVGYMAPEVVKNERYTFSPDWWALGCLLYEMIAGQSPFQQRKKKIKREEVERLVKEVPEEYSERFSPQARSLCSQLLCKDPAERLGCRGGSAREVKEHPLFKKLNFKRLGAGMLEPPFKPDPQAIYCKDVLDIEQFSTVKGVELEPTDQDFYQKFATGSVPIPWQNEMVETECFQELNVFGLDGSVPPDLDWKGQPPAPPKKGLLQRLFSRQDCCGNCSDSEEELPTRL", "assay": "GRK6(h) Eurofins kinase panel", "settings": "Compound concentration 1.0 uM"}, "[5]": {"molecular_target": "T2, Mitogen-activated protein kinase kinase kinase 7 (Homo sapiens) (UniProt O43318)", "T2 sequence (whole entry)": "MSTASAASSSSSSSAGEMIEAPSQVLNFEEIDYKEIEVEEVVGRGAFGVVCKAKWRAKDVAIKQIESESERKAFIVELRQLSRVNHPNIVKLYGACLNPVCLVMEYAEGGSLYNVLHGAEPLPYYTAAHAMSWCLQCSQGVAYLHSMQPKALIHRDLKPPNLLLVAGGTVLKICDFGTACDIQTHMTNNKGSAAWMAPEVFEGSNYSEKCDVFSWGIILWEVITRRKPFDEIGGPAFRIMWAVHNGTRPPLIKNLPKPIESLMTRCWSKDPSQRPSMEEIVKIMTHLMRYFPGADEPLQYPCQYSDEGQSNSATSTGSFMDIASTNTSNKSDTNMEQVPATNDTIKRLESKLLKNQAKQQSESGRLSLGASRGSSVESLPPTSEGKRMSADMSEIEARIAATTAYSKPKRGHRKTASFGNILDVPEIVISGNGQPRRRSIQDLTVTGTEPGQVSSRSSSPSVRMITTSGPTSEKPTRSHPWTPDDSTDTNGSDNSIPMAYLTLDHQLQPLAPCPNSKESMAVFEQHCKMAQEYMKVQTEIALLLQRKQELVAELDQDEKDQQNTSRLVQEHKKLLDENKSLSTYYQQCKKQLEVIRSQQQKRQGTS", "assay": "TAK1(h) Eurofins kinase panel", "settings": "Compound concentration 1.0 uM"}, "[6]": {"molecular_target": "T3, Serine/threonine-protein kinase ULK2 (Homo sapiens) (UniProt Q8IYT8)", "T3 sequence (whole entry)": "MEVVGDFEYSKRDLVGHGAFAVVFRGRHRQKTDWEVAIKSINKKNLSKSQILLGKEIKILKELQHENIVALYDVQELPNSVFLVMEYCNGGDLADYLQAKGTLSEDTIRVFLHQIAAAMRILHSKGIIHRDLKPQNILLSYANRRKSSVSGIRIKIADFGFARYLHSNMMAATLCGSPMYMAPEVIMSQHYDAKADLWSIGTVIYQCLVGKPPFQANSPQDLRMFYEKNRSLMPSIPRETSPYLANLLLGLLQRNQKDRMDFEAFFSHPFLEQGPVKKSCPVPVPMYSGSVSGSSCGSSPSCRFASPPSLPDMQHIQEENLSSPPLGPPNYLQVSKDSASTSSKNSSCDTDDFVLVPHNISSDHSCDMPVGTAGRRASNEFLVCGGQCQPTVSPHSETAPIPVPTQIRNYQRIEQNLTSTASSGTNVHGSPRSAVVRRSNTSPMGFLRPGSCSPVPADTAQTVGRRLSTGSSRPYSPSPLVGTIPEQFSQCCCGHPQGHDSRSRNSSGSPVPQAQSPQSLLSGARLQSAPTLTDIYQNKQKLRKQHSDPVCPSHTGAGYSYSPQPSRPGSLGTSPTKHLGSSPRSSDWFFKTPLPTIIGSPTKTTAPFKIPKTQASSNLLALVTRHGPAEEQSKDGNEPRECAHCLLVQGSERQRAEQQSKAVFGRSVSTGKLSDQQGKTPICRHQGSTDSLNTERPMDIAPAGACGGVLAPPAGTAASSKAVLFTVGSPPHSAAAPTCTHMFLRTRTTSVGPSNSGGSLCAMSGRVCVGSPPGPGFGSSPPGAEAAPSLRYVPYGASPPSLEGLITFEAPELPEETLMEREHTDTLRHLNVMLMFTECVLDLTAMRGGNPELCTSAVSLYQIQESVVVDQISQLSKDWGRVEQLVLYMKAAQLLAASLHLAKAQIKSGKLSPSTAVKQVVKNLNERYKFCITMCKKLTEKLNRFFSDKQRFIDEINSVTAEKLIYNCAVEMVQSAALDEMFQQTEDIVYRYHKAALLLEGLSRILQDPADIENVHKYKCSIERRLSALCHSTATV", "assay": "ULK2(h) Eurofins kinase panel", "settings": "Compound concentration 1.0 uM"}, "[7]": {"molecular_target": "Serine/threonine-protein kinase 24 (Homo sapiens, UniProt Q9Y6E0)", "sequence (Q9Y6E0 whole entry, looked up)": "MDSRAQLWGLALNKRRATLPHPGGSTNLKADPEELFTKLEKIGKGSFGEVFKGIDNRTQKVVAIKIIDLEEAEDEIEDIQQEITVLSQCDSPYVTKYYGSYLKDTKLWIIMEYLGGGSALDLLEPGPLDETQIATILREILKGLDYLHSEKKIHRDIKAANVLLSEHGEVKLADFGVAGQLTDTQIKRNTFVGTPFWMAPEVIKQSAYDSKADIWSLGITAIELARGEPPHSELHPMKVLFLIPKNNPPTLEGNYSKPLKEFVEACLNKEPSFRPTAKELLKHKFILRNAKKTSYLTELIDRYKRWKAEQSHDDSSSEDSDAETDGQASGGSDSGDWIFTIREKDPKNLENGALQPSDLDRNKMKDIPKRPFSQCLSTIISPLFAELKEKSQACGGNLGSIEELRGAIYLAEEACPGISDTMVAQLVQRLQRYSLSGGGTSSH", "settings": "Compound concentration 1.0 uM"}, "[8]": {"molecular_target": "5'-AMP-activated protein kinase catalytic subunit alpha-1 (Homo sapiens, UniProt Q13131)", "sequence (Q13131 whole entry)": "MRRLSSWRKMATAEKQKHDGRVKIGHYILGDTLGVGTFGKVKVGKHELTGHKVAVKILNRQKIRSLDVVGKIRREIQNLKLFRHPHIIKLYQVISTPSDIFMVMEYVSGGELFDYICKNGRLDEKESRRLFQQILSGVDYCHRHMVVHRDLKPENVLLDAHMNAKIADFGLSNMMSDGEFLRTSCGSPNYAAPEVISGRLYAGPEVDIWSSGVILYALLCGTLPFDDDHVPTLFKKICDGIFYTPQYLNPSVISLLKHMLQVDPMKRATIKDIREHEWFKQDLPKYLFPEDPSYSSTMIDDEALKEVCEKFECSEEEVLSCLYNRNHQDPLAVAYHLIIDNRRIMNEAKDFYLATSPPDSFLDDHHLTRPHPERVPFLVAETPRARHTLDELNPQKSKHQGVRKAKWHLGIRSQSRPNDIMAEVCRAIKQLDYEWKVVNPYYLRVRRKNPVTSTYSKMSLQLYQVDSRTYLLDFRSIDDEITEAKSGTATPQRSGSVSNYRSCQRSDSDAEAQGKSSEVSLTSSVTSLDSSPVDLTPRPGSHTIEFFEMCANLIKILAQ", "assay": "Eurofins kinase panel (PRKAA1)", "set-up": "compound concentration 1 uM"}, "[9]": {"molecular_target": "Serine/threonine-protein kinase Chk2 (Homo sapiens) (UniProt O96017)", "sequence (O96017 whole entry)": "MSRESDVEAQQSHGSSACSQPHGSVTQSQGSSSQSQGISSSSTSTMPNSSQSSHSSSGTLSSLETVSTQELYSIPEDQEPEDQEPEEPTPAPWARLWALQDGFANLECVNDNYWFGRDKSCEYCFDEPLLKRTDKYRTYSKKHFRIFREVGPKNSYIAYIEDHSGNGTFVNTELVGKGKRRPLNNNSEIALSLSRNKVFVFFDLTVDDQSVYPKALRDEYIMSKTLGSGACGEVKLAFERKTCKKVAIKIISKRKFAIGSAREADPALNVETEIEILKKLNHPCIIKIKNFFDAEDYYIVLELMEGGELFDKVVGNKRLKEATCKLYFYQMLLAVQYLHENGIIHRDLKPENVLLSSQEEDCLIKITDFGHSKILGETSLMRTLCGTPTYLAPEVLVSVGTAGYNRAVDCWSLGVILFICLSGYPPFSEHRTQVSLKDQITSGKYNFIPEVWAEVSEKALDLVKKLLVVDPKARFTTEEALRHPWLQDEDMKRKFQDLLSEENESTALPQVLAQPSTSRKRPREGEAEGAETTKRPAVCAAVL", "assay": "CHK2(h) Eurofins kinase panel", "settings": "Compound concentration 1.0 uM"}}, "note": "Activity calls are given as the source filed them. The calls are words filed in the database; no cut-off is given here.", "data": [{"smiles": "CCc1ccccc1C(=O)Nc1n[nH]c2c(C)c(F)c(C3C(C#N)=C(C)N(C)C(C)=C3C#N)cc12", "note": "[BAY-3827]", "values": [{"measurement": "% residual kinase activity", "setting": "[1]", "result": 106, "unit": "%"}, {"measurement": "% residual kinase activity", "setting": "[2]", "result": 96, "unit": "%"}, {"measurement": "% residual kinase activity", "setting": "[3]", "result": 73, "unit": "%"}, {"measurement": "% residual kinase activity", "setting": "[4]", "result": 96, "unit": "%"}, {"measurement": "% residual kinase activity", "setting": "[5]", "result": 104, "unit": "%"}, {"measurement": "% residual kinase activity", "setting": "[6]", "result": 84, "unit": "%"}, {"measurement": "% residual kinase activity", "setting": "[7]", "result": 17, "unit": "%"}, {"measurement": "IC50", "setting": "[8]", "result": "7 nM (active)"}, {"measurement": "% residual kinase activity", "setting": "[9]", "result": 100, "unit": "%"}]}]}
